From PMC10583863 (European journal of medicinal chemistry, 2022)

Assays:
Format in all cases: cell-based, Mycobacterium tuberculosis
53.3 (Rv2466c, W28S) = test system: 53.3 (Rv2466c, W28S)
53.8 (Rv0579, L240V) = test system: 53.8 (Rv0579, L240V)
NTB1 (dprE1, G387S) = test system: NTB1 (dprE1, G387S)
DR1 (mmpl3, V681I) = test system: DR1 (mmpl3, V681I)
88.1 (coaA, Q207R) = test system: 88.1 (coaA, Q207R)
88.7 (pyrG, V186G) = test system: 88.7 (pyrG, V186G)

Measured: MIC90

NNC(=O)c1ccncc1 [INH, Isoniazide]
0.025 µg/mL: all assays above
